Measured values from PubChem BioAssay (NCI).
“And” between values parts separate entries of the source, which are not always exact repeats. Equal values may be shown once.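 Tested at 5 concentrations; 48 h exposure; 96-well plates; endpoints linearly interpolated, else capped at highest concentration. At the GI50, growth is halved. TGI denotes the concentration required for complete inhibition of growth.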

How the values were obtained:
Test in all cases: growth of human tumour cells (NCI), 48 h
[1] = tested on: U251 CNS
[2] = tested on: LXFL 529 NSCLC
[3] = tested on: SF-295 CNS
[4] = tested on: NCI-H226 lung
[5] = tested on: HL-60(TB) leukemia
[6] = tested on: UO-31 renal
[7] = tested on: NCI-H460 lung
[8] = tested on: NCI-H23 lung
[9] = tested on: TK-10 renal
[10] = tested on: M19-MEL melanoma

SMILES | TGI [1] | TGI [2] | TGI [3] | TGI [4] | TGI [5] | TGI [6] | TGI [7] | TGI [8] | TGI [9] | TGI [10] | GI50 [1] [µM] | GI50 [2] [µM] | GI50 [3] [µM] | GI50 [5] [µM] | GI50 [7] [µM] | GI50 [8] [µM] | GI50 [10] [µM] | GI50 [4] [µM] | GI50 [6] [µM] | GI50 [9] [µM]
CC(=O)O[C@H]1[C@@H]2[C@@H]3[C@@H](C[C@H]1C)[C@@H](C)CO[C@@]1(C)CC/C=C(/C)C[C@@H]2O[C@@H]31 | > 100 µM | > 100 µM | > 100 µM | > 100 µM | > 100 µM | > 100 µM | > 100 µM | > 100 µM | > 100 µM | > 100 µM | – | – | – | – | – | – | – | – | – | –
CC(=O)OCC1OC(OC2CC3C(C)(C)C(OC(C)=O)CC[C@]3(C)C3CCC45CC4(CC[C@H]5C(C)CC(O)C4OC4(C)C)[C@]23C)C(O)C(O)C1O (some centres not stated) | 7.73 µM and 11.8 µM | 10.6 µM and 15.2 µM | 5.5 µM and 11 µM | 11.6 µM | 2.09 µM and 3.03 µM | 11.1 µM and 14.4 µM | 5.75 µM and 9.38 µM | 10.4 µM and 6.58 µM | 9.79 µM and 12.7 µM | 6.5 µM and 6.19 µM | 3.13 | 3.74 | 3.34 | 0.623 | 3.21 | 2.55 | 2.35 | – | – | –
O=C(CC/C(C/C(=N/O)c1ccc(F)cc1)=N/O)N(Cc1ccccc1)Cc1ccccc1 | > 100 µM | > 100 µM | > 100 µM | > 100 µM | > 100 µM | > 100 µM | > 100 µM | > 100 µM | > 100 µM | > 100 µM | – | – | – | – | – | – | – | – | – | –
CC1CCCC(C(O)CC2CC(=O)N(c3ccccc3)C(=O)C2)C1=O (configuration not stated) | > 100 µM | > 100 µM | > 100 µM | > 100 µM | > 100 µM | > 100 µM | > 100 µM | > 100 µM | > 100 µM | > 100 µM | – | – | – | – | – | – | – | – | – | –
Cn1cc2c(n1)c(N/N=C/c1ccccc1)nn1nnnc21 | > 100 µM | > 100 µM | > 100 µM | > 100 µM | > 100 µM | > 100 µM | > 100 µM | > 100 µM | > 100 µM | > 100 µM | – | – | – | – | – | – | – | – | – | –
C=CCNC1=C(C(=O)OCC)C(=O)CO1 | > 100 µM | > 100 µM | > 100 µM | > 100 µM | > 100 µM | > 100 µM | > 100 µM | > 100 µM | > 100 µM | > 100 µM | – | – | – | – | – | – | – | – | – | –
O=C([O-])c1ccc2c(c1)-c1nc-2nc2[n-]c(nc3nc(nc4[n-]c(n1)c1ccc(C(=O)[O-])cc41)-c1cc(C(=O)[O-])ccc1-3)c1ccc(C(=O)[O-])cc21.[Fe+2] | > 50 µM | > 50 µM | > 50 µM | > 50 µM | > 30.5 µM | > 50 µM | > 50 µM | > 50 µM | > 50 µM | > 50 µM | > 38.4 | > 41.6 | > 50 | > 22.9 | > 50 | > 50 | > 31.8 | > 50 | > 50 | > 50
C=C(CN(CC(=C)C(=O)c1ccccc1)C(C)(C)C)C(=O)c1ccccc1 | 39.4 µM | 10.1 µM | > 54.2 µM | 48.4 µM | 9.7 µM | 24.3 µM | 43.2 µM | 32.7 µM | 27 µM | 30 µM | – | – | – | – | – | – | – | – | – | –
COc1ccc(NC(=O)C(=O)NNC(=O)c2sc(NNC(C)=O)nc2C)c([N+](=O)[O-])c1 | > 100 µM | > 100 µM | > 100 µM | > 100 µM | > 100 µM | > 100 µM | > 100 µM | > 100 µM | > 100 µM | > 100 µM | – | – | – | – | – | – | – | – | – | –
CO[C@H]1[C@H](O)[C@H](O[C@H]2CC[C@@]3(C)[C@H](CC[C@@H]4[C@@H]3CC[C@]3(C)[C@@H](C5=CC(=O)OC5)CC[C@]43O)C2)O[C@@H](C)[C@@H]1O | 0.00385 µM and 0.0152 µM | 0.00658 µM and 0.0128 µM | 0.00224 µM and < 0.0107 µM | 0.0192 µM and < 0.0129 µM | 0.00363 µM | 0.00201 µM | 0.00151 µM | 0.00127 µM | 0.00345 µM | 0.016 µM | – | – | – | 0.00175 | – | – | – | – | – | –
COC(=O)c1ccccc1NC(=O)C(=O)CC(=O)c1ccccc1NC1=CC(=O)C(=O)c2ccccc21 | 67.4 µM | 27.2 µM | > 49.8 µM | 49.7 µM | 12 µM | 69 µM | 65.4 µM | 24 µM | > 95.1 µM | 4.49 µM | – | – | – | – | – | – | – | – | – | –
Cc1ccc(S(=O)(=O)N2CCC3(C(/C=C/c4ccccc4)=Nc4ccccc43)C2c2ccccc2)cc1 (configuration not stated) | > 100 µM | > 100 µM | > 100 µM | > 100 µM | > 100 µM | > 100 µM | > 100 µM | > 100 µM | > 100 µM | > 100 µM | – | – | – | – | – | – | – | – | – | –
N#C/C(=C/c1cccnc1)C(=O)c1ccccc1 | > 100 µM | > 100 µM | > 100 µM | > 100 µM | > 100 µM | > 100 µM | > 100 µM | > 100 µM | > 100 µM | > 100 µM | – | – | – | – | – | – | – | – | – | –
CCCCCCCCCCCCCC/C(C(=O)OC)=C(/O)C(=O)OCC | 69.4 µM | > 100 µM | 40.9 µM | > 100 µM | > 100 µM | 53.5 µM | > 100 µM | > 100 µM | > 100 µM | > 100 µM | – | – | – | – | – | – | – | – | – | –
CCOP(=O)(CC(=O)C1=C(O)C(CCCNC(=O)OC(C)(C)C)N(Cc2ccc(OC)c(OC)c2)C1=O)OCC (configuration not stated) | > 100 µM | > 100 µM | > 100 µM | > 100 µM | > 100 µM | > 100 µM | > 100 µM | > 100 µM | > 100 µM | > 100 µM | – | – | – | – | – | – | – | – | – | –
CC1=C(C(=O)Nc2ccccc2C)C(c2ccc([N+](=O)[O-])cc2)C(C(=O)Nc2ccccc2C)=C(C)N1 | > 100 µM | > 100 µM | > 100 µM | > 100 µM | 47 µM | > 100 µM | > 100 µM | > 100 µM | > 100 µM | > 100 µM | – | – | – | – | – | – | – | – | – | –
Cc1c(O)c(=O)ccn1C1OC(CO)C(O)C1O (configuration not stated) | > 100 µM | > 100 µM | > 100 µM | > 100 µM | 56.3 µM | > 100 µM | > 100 µM | – | > 100 µM | > 100 µM | – | – | – | – | – | – | – | – | – | –
